Assay results as given in patent US11208381B2, “Indole derivatives and their use as protein kinase inhibitors” (RespiVert Limited, priority 2016, dated 2021).

Experiments:
PDGFRβ = PDGFRβ (Homo sapiens (Human), UniProt P09619); test: PDGFRβ enzyme inhibition (ADP-Glo assay); format: biochemical; conditions: mean, n = 2 (nintedanib n = 34)
[1] = Pharmacokinetic measurements in rats, intra-tracheal dosing; format: in vivo; conditions: rat; for Lung conc i.t./i.v. Ratio at time 0.1 h / Lung conc i.t./i.v. Ratio at time 1.5 h / Lung conc i.t./i.v. Ratio at time 6 h / Lung conc i.t./i.v. Ratio at time 24 h: i.t. versus i.v.; for concentration at 0.1 h: read-out: lung concentration (nM) at time 0.1 h; for concentration at 1.5 h: read-out: lung concentration (nM) at time 1.5 h; for concentration at 6 h: read-out: lung concentration (nM) at time 6 h; for concentration at 24 h: read-out: lung concentration (nM) at time 24 h; for Kp at 0.1 h / Kp at 1.5 h / Kp at 6 h / Kp at 24 h: lung/plasma; for Kp at 0.1 h: read-out: lung/plasma conc ratio at time 0.1 h; for Kp at 1.5 h: read-out: lung/plasma conc ratio at time 1.5 h; for Kp at 6 h: read-out: lung/plasma conc ratio at time 6 h; for Kp at 24 h: read-out: lung/plasma conc ratio at time 24 h
[2] = Pharmacokinetic measurements in rats, intravenous dosing; format: in vivo; conditions: rat; for concentration at 0.1 h: read-out: lung concentration (nM) at time 0.1 h; for concentration at 1.5 h: read-out: lung concentration (nM) at time 1.5 h; for concentration at 6 h: read-out: lung concentration (nM) at time 6 h; for concentration at 24 h: read-out: lung concentration (nM) at time 24 h; for Kp at 0.1 h / Kp at 1.5 h / Kp at 6 h / Kp at 24 h: lung/plasma; for Kp at 0.1 h: read-out: lung/plasma ratio at time 0.1 h; for Kp at 1.5 h: read-out: lung/plasma ratio at time 1.5 h; for Kp at 6 h: read-out: lung/plasma ratio at time 6 h; for Kp at 24 h: read-out: lung/plasma ratio at time 24 h
PAMPA permeability assay = format: in vitro ADME; conditions: PAMPA experimental recovery
[3] = male, CD, lung, other: intra-tracheal
[4] = male, CD, other: intra-tracheal

PDGFRβ, sequence (P09619 33-1106): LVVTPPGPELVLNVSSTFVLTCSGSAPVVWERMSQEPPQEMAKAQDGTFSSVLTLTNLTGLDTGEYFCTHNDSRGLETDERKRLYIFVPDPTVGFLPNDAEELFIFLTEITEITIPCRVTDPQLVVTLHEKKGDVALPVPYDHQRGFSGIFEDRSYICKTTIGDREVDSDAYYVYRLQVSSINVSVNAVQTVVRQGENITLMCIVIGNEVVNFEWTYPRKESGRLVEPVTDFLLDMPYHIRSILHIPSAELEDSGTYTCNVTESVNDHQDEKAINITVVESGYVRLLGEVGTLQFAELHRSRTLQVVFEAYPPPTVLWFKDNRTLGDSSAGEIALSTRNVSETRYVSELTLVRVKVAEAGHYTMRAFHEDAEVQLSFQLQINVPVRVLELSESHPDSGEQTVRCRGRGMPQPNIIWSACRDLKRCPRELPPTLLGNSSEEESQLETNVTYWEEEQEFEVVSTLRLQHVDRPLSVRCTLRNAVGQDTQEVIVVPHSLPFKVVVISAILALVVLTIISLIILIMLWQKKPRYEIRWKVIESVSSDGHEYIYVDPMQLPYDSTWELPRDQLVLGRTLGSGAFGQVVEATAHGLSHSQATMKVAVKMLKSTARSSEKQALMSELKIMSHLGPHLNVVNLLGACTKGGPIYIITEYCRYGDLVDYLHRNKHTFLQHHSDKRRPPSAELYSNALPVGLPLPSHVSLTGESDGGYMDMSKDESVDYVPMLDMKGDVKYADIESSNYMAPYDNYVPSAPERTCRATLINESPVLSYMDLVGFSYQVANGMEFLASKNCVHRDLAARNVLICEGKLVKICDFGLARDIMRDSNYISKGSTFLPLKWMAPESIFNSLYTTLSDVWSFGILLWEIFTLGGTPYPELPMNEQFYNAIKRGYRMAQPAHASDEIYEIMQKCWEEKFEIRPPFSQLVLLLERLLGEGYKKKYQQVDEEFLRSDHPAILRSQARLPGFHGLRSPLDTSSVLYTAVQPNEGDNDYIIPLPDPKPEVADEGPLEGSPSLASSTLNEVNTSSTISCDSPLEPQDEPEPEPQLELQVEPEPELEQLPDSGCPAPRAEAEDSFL

| SMILES | Ki (PDGFRβ) | Lung conc i.t./i.v. Ratio at time 0.1 h ([1]; 0.1 h) | Lung conc i.t./i.v. Ratio at time 1.5 h ([1]; 1.5 h) | Lung conc i.t./i.v. Ratio at time 6 h ([1]; 6 h) | Lung conc i.t./i.v. Ratio at time 24 h ([1]; 24 h) | concentration at 0.1 h ([2]; male, CD, lung, iv) | concentration at 1.5 h ([2]; male, CD, lung, iv) | Kp at 0.1 h ([2]; male, CD, iv) | Kp at 1.5 h ([2]; male, CD, iv) | concentration at 0.1 h [1, 3] | concentration at 1.5 h [1, 3] | concentration at 6 h [1, 3] | concentration at 24 h [1, 3] | Kp at 0.1 h [1, 4] | Kp at 1.5 h [1, 4] | Kp at 6 h [1, 4] | Kp at 24 h [1, 4] | other results |
| --- | --- | --- | --- | --- | --- | --- | --- | --- | --- | --- | --- | --- | --- | --- | --- | --- | --- | --- |
| COC(=O)c1cc2c(cc1C)/C(=C(/Nc1ccc(S(=O)(=O)NCCN3CCN(C)CC3)cc1)c1ccccc1)C(=O)N2 [Example 1, (Z)-Methyl 5-methyl-3-(((4-(N-(2-(4-methylpiperazin-1-yl)ethyl)sulfamoyl)phenyl)amino)(phenyl)methylene)-2-oxoindoline-6-carboxylate] | 9.93 nM |  |  |  |  |  |  |  |  |  |  |  |  |  |  |  |  |  |
| COC(=O)c1cc2c(cc1C)/C(=C(/Nc1ccc(C(=O)NCC3CCN(C)CC3)cc1)c1ccccc1)C(=O)N2 [Example 3, (Z)-Methyl 5-methyl-3-(((4-(((1-methylpiperidin-4-yl)methyl)carbamoyl)phenyl)amino)(phenyl)methylene)-2-oxoindoline-6-carboxylate] |  | 3 | 7 | 15 | 14 |  |  |  |  |  |  |  |  |  |  |  |  |  |
| COC(=O)c1cc2c(cc1C)/C(=C(/Nc1ccc(C(=O)NCCN3CCCN(C)CC3)cc1)c1ccccc1)C(=O)N2 [Example 5, (Z)-Methyl 5-methyl-3-(((4-((2-(4-methyl-1,4-diazepan-1-yl)ethyl)carbamoyl)phenyl)amino)(phenyl)methylene)-2-oxoindoline-6-carboxylate] | 12.9 nM | 7 | 12 | 2 | 7 | 765 nM | 330 nM | 127 | > 188 | 5510 nM | 4020 nM | 1070 nM | 1670 nM | 371 | > 2280 | > 606 | > 951 | concentration at 6 h ([2]; male, CD, lung, iv): 499 nM; concentration at 24 h ([2]; male, CD, lung, iv): 247 nM; Kp at 6 h ([2]; male, CD, iv): > 284; Kp at 24 h ([2]; male, CD, iv): > 140 |
| COC(=O)c1cc2c(cc1C)/C(=C(/Nc1ccc(C(=O)NCCN3CCC(N(C)C)CC3)cc1)c1ccccc1)C(=O)N2 [Example 6, (Z)-Methyl 3-(((4-((2-(4-(dimethylamino)piperidin-1-yl)ethyl)carbamoyl)phenyl)amino)(phenyl)methylene)-5-methyl-2-oxoindoline-6-carboxylate] | 10.3 nM | 9.8 | 8.0 | 8.3 | 7.7 | 1000 nM | 949 nM | 77 | > 558 | 9830 nM | 7570 nM | 7820 nM | 6440 nM | 472 | > 4450 | > 4600 | > 3790 | concentration at 6 h ([2]; male, CD, lung, iv): 939 nM; concentration at 24 h ([2]; male, CD, lung, iv): 837 nM; Kp at 6 h ([2]; male, CD, iv): > 552; Kp at 24 h ([2]; male, CD, iv): > 492 |
| COC(=O)c1cc2c(cc1C)/C(=C(/Nc1ccc(C(=O)NCC(=O)N3CCN(CCO)CC3)cc1)c1ccccc1)C(=O)N2 [Example 7, (Z)-Methyl 3-(((4-((2-(4-(2-hydroxyethyl)piperazin-1-yl)-2-oxoethyl)carbamoyl)phenyl)amino)(phenyl)methylene)-5-methyl-2-oxoindoline-6-carboxylate] | 5.76 nM |  |  | >42 | >10 | 99 nM | 44 nM | 2 | 12 | 1530 nM | 886 nM | 116 nM | 27 nM | 39 | > 265 | > 35 | > 8 |  |
| COC(=O)c1cc2c(cc1C)/C(=C(/Nc1ccc(C(=O)NCC(=O)N3CCN(C)CC3)cc1)c1ccccc1)C(=O)N2 [Example 8, (Z)-Methyl 5-methyl-3-(((4-((2-(4-methylpiperazin-1-yl)-2-oxoethyl)carbamoyl)phenyl)amino)(phenyl)methylene)-2-oxoindoline-6-carboxylate] | 8.12 nM |  |  |  |  |  |  |  |  |  |  |  |  |  |  |  |  |  |
| COC(=O)c1cc2c(cc1C)/C(=C(/Nc1ccc(C(=O)NCCN3CCNC(=O)C3)cc1)c1ccccc1)C(=O)N2 [Example 9, (Z)-Methyl 5-methyl-2-oxo-3-(((4-((2-(3-oxopiperazin-1-yl)ethyl)carbamoyl)phenyl)amino)(phenyl)methylene)indoline-6-carboxylate] |  | 12 | 51 | 45 | 21 |  |  |  |  |  |  |  |  |  |  |  |  |  |
| COC(=O)c1cc2c(cc1C)/C(=C(/Nc1ccc(C(=O)NCCN3CCC(O)CC3)cc1)c1ccccc1)C(=O)N2 [Example 12, (Z)-Methyl 3-(((4-((2-(4-hydroxypiperidin-1-yl)ethyl)carbamoyl)phenyl)amino)(phenyl)methylene)-5-methyl-2-oxoindoline-6-carboxylate] | 8.75 nM |  |  |  |  |  |  |  |  |  |  |  |  |  |  |  |  |  |
| COC(=O)c1cc2c(cc1C)/C(=C(/Nc1ccc(C(=O)NC3CCN(C)CC3)cc1)c1ccccc1)C(=O)N2 [Example 18, (Z)-Methyl-5-methyl-3-(((4-((1-methylpiperidin-4-yl)carbamoyl)phenyl)amino)(phenyl)methylene)-2-oxoindoline-6-carboxylate] |  |  |  |  |  |  |  |  |  |  |  |  |  |  |  |  |  | % Recovery (PAMPA permeability assay): 84.5%; t½ ([2]; i.v. dose 0.1 (nintedanib 0.42)): 5.1 h; concentration at 0.1 h ([2]; i.v. dose 0.1 (nintedanib 0.42), 0.1 h): 638 nM; concentration at 1.5 h ([2]; i.v. dose 0.1 (nintedanib 0.42), 1.5 h): 306 nM; concentration at 6 h ([2]; i.v. dose 0.1 (nintedanib 0.42), 6 h): 201 nM; concentration at 0.1 h ([1]; i.t. dose 0.1 (nintedanib 0.42), 0.1 h): 6533 nM; concentration at 1.5 h ([1]; i.t. dose 0.1 (nintedanib 0.42), 1.5 h): 5987 nM; concentration at 6 h ([1]; i.t. dose 0.1 (nintedanib 0.42), 6 h): 2351 nM; concentration at 24 h ([1]; i.t. dose 0.1 (nintedanib 0.42), 24 h): 4523 nM |
